Test systems include HOP-62; SN12C; HCT-15; SF-295; 786-0; MOLT-4; ACHN; KM12; NCI-H460; M14; SK-MEL-2; SK-MEL-5; NCI-H23; CCRF-CEM.
Common to all, as to test: NCI tumour cell line growth inhibition, 48 h

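Briefly, cells in 96-well plates were exposed to five compound concentrations for 48 h, and endpoints were estimated by linear interpolation. The concentration for 50% growth inhibition is given as GI50.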 The source made the active and inactive calls. Rule as the data show it: active = GI50 up to about 1.1 µM and inactive = higher.

As for `N#CCCN(c1ccc(C=O)cc1)S(=O)(=O)c1ccccc1`, the GI50 in the assay on HOP-62 is > 100 µM (inactive); with SN12C, > 100 µM (inactive); with HCT-15, more than 100 µM; in the assay on SF-295, > 100 µM (inactive); in the assay on 786-0, > 100 µM (inactive); with MOLT-4, > 100 µM (inactive). The GI50 in the assay with ACHN, in the assay on KM12, in the assay with NCI-H460, with M14, with SK-MEL-2 and in the assay with SK-MEL-5 was > 100 µM (inactive) each time.
As to `Cn1c(=O)nc2n(-c3ccc(Cl)cc3)c3ccc(Cl)cc3nc-2c1=O`, the GI50 is 18 µM (inactive) with HOP-62; 13.1 µM (inactive) with SN12C; 8.02 µM in the assay on HCT-15; 4.88 µM (inactive) in the assay with SF-295; 12.2 µM (inactive) with 786-0; 16.8 µM (inactive) with MOLT-4. The GI50 in the assay on KM12 was 14.5 µM (inactive); in the assay on NCI-H460 it was 5.98 µM (inactive); in the assay on M14 it was 9.06 µM (inactive); in the assay with SK-MEL-2 it was 4.36 µM (inactive); in the assay with SK-MEL-5 it was 1.04 µM (active); in the assay on NCI-H23 it was 2.36 µM (inactive). For the same compound, the GI50 in the assay with CCRF-CEM is 13.6 µM (inactive).
As to `CCN(CC)CCn1c2c3ccccc3ccc2c2oc(=O)c3ccccc3c21`, the GI50 with HOP-62 was 18.3 µM (inactive); with HCT-15, more than 100 µM; with SF-295, 56.2 µM (inactive); in the assay on 786-0, 22.9 µM (inactive); with ACHN, > 100 µM (inactive); with KM12 it was > 100 µM (inactive). The GI50 in the assay on NCI-H460 is 13.7 µM (inactive); with M14, 45.5 µM (inactive); with SK-MEL-2, > 100 µM (inactive); in the assay on NCI-H23 it was > 100 µM (inactive); with CCRF-CEM, > 100 µM (inactive).
For `O=C(N/N=C/c1cccc(O)c1O)N/N=C/c1cccc(O)c1O`, the GI50 is 21.8 µM (inactive) in the assay on SN12C; 8.45 µM in the assay on HCT-15; 17.9 µM (inactive) in the assay with SF-295; 15.1 µM (inactive) in the assay on 786-0; 5.38 µM (inactive) with MOLT-4; 13.9 µM (inactive) in the assay on ACHN. For the same compound, the GI50 in the assay with KM12 was 26.5 µM (inactive); in the assay on NCI-H460, 30.1 µM (inactive); in the assay with M14 it was 14 µM (inactive); in the assay with SK-MEL-2 it was 24 µM (inactive); in the assay on NCI-H23 it was 25.2 µM (inactive); in the assay with CCRF-CEM, 3.5 µM (inactive).
Take `CCN1N=CSC12C(=O)N(c1ccccc1)C(=O)N2c1ccccc1` (configuration not stated): the GI50 in the assay on HOP-62, with SN12C, with SF-295, in the assay on 786-0, in the assay with MOLT-4 and with ACHN was > 100 µM (inactive) each time. In addition, the GI50 with KM12, in the assay on NCI-H460, in the assay on M14, with SK-MEL-5, in the assay on NCI-H23 and in the assay on CCRF-CEM was > 100 µM (inactive) in each case.
Turning to `CC(C)(C)C1CCC(=O)C(C(O)CC2CC(=O)N(c3ccccc3)C(=O)C2)C1` (configuration not stated), the GI50 in the assay on HOP-62 was > 100 µM (inactive); in the assay with SN12C, > 100 µM (inactive); in the assay on HCT-15 it was more than 100 µM; with SF-295 it was > 100 µM (inactive); with 786-0 it was > 100 µM (inactive); in the assay with MOLT-4, 54.5 µM (inactive). Moreover, the GI50 is > 100 µM (inactive) in the assay on ACHN; > 100 µM (inactive) in the assay with KM12; > 100 µM (inactive) with NCI-H460; > 100 µM (inactive) in the assay on M14; > 100 µM (inactive) in the assay with NCI-H23; 53.1 µM (inactive) with CCRF-CEM.

The values are drawn from ChEMBL document CHEMBL1201862, “PubChem BioAssay data set” (2004).
